The source of these data is patent US20260216219A1, “MODULATOR FOR PROMOTING BINDING OF BUTYROPHILIN 3A1/2A1” (priority 2023, published 2026).

The subject of the first assay is MIAPaCa/FG2 cells. Kind of assay: EC50 assay of small molecule activated γδ T cells to kill tumor cells (3-fold dilution, 0.05-100 nM). Type of assay: cell-based. To be noted: T-cell, γδT cells co-cultured with MIAPaCa/FG2 cells, E:T=2:1, 20 hours, compound diluted 3-fold, chemiluminescence, read-out: killing data of MIAPaCa/FG2 cells (EC50). How it is done: γδT cells and MIAPaCa/FG2 tumor cell lines were expanded and cultured in vitro. MIAPaCa/FG2 cells were digested, and the cells were counted and resuspended in DMEM complete medium, the density of the cell suspension was adjusted and added into a 96-well plate at 5×10^3 cells/50 μL/well for overnight incubation. On the next day, the test compound and the control compound were diluted at a 3-fold ratio with DMSO, and 4 μL of the diluted compound was added to 96 μL of culture medium for 25-fold dilution. 5 μL of 25-fold diluted compound was transferred to the corresponding well which had been plated with tumor cells, and the actual detection concentration was in the range of 0.05-100 nM. γδT cells were resuspended in γδT complete medium, and the density of the cell suspension was adjusted according to the effector-target ratio of E:T=2:1, and then the cell was added to the corresponding well at 1×10^4 cells/100 μL/well. After co-culture at 37° C., 5% CO2 for 20 hours, the cells were centrifuged. The supernatant was removed, and 50 μL of cell lysate containing […] substrate was added to each well. After standing for 18 minutes in the dark, the signal of chemiluminescence was detected. The EC50 value was calculated by four-parameter fitting, with the corresponding signal value of the well with only tumor cells as the minimum killing value, and the corresponding value of the well without tumor cells as the maximum killing value. The killing data of MIAPaCa/FG2 cells are as follows: […]
`C/C(=C\CCP(=O)(N[C@@H](C)C(=O)OC(C)C)Oc1ccccc1)CO` (stereo partly drawn) [Control compound 1, Isopropyl (((E)-5-hydroxy-4-methylpent-3-en-1-yl)(phenoxy)phosphoryl)-L-alaninate, reference compound]: the EC50 came to 0.53 nM.

Still in this assay, the particulars now being: γδT cells co-cultured with MIAPaCa/FG2 cells, E:T=2:1, 20 hours, compound diluted 3-fold, chemiluminescence, read-out: killing data of MIAPaCa/FG2 cells (EC50).
Consider `C/C(=C\CCP(=O)(N[C@@H](C)C(=O)OC(C)C)Oc1ccc(C[C@H](NCCCc2ccccc2)C(=O)O[C@@H]2CCOC2)cc1)CO` (stereo partly drawn) [Compound 8], for which the EC50 amounted to 0.052 nM. On the same count and under the same terms, the figure for `C/C(=C\CCP(=O)(N[C@@H](C)C(=O)OC(C)C)Oc1ccc(C[C@H](NCCCc2ccccc2)C(=O)O[C@H]2CCOC2)cc1)CO` (stereo partly drawn) [Compound 9] is 0.012 nM; for `C/C(=C\CCP(=O)(N[C@@H](C)C(=O)OC(C)C)Oc1ccc(C[C@H](NCCc2ccccc2)C(=O)O[C@H]2CCOC2)cc1)CO` (stereo partly drawn) [Compound 11, (S)-Tetrahydrofuran-3-yl (2S)-3-(4-((((E)-5-hydroxy-4-methylpent-3-en-1-yl)(((S)-1-isopropoxy-1-oxopropan-2-yl)amino)phosphor yl)oxy)phenyl)-2-(phenethylamino)propionate] it is 41.7 nM; for `C/C(=C\CCP(=O)(N[C@@H](C)C(=O)OCC(C)C)Oc1ccc(C[C@H](NCCCc2ccccc2)C(=O)O[C@H]2CCOC2)cc1)CO` (stereo partly drawn) [Compound 12, (S)-tetrahydrofuran-3-yl (2S)-3-(4-((((E)-5-hydroxy-4-methylpent-3-en-1-yl)(((S)-1-isobutoxy-1-oxopropan-2-yl)amino)phosphoryl)oxy)phenyl)-2-((3-phenylpropyl)amino)propionate] it is 0.011 nM. For `CCC(CC)OC(=O)[C@H](C)NP(=O)(CC/C=C(\C)CO)Oc1ccc(C[C@H](NCCCc2ccccc2)C(=O)O[C@H]2CCOC2)cc1` (stereo partly drawn) [Compound 13, (S)-tetrahydrofuran-3-yl (2S)-3-(4-((((E)-5-hydroxy-4-methylpent-3-en-1-yl)(((S)-1-oxo-1-(pentan-3-yloxy)propan-2-yl)amino)phosphoryl)oxy)phenyl)-2-((3-phenylpropyl)amino)propionate], the EC50 came to 0.42 nM. Take `C/C(=C\CC[P@@](=O)(N[C@@H](C)C(=O)NC(C)C)Oc1ccc(C[C@H](NCCCc2ccccc2)C(=O)O[C@H]2CCOC2)cc1)CO` [Compound 14]: the EC50 is 0.016 nM.

On to `C/C(=C\CC[P@](=O)(N[C@@H](C)C(=O)NC(C)C)Oc1ccc(C[C@H](NCCCc2ccccc2)C(=O)O[C@H]2CCOC2)cc1)CO` [Compound 15], for which the EC50 is 1.6 nM.

For the compound `C/C(=C\CCP(=O)(N[C@@H](C)C(=O)OCC(C)C)Oc1ccc(C[C@H](NCCCc2ccccc2)C(=O)NC(C)C)cc1)CO` (stereo partly drawn) [Compound 16, Isobutyl (((E)-5-hydroxy-4-methylpent-3-en-1-yl)(4-((S)-3-(isopropylamino)-3-oxo-2-((3-phenylpropyl)amino)propyl)phenoxy)phosphoryl)-L-alaninate], the EC50 was 0.011 nM.

A further assay relates to MIAPaCa/FG2 cells. The assay can be described thus: EC50 assay of small molecule activated γδ T cells to kill tumor cells (10-fold dilution, 10^-12-10^-5 M). It is filed as cell-based. Particulars: Homo sapiens, MIA PaCa-2, 20 h, read-out: MIApaca killing (nM). How it is done:
γδT cells and MIAPaCa/FG2 tumor cell lines were expanded and cultured in vitro. The MIAPaCa/FG2 cells were digested, and the cells were counted and resuspended in DMEM complete medium, the density of the cell suspension was adjusted and added into a 96-well plate at 5×10^3 cells/50 μL/well for overnight incubation. On the next day, the test compound and the control compound were diluted at a 10-fold ratio with γδT complete medium. 50 μL of diluted compound was transferred to the corresponding wells which had been plated with tumor cells, and the actual detection concentration was in the range of 10^−12-10^−5 M. γδT cells were resuspended in γδT complete medium, and the density of the cell suspension was adjusted according to the effector-target ratio of E:T=2:1, and then the cells were added to the corresponding wells at 1×10^4 cells/50 μL/well. After co-culture at 37° C., 5% CO2 for 20 hours, the cells were centrifuged. The supernatant was removed, and 50 μL of cell lysate containing luciferin substrate was added to each well. After standing for 18 minutes in the dark, the signal of chemiluminescence was detected. The EC50 value was calculated by four-parameter fitting, with the corresponding signal value of the well with only tumor cells as the minimum killing value, and the corresponding signal value of the well without tumor cells as the maximum killing value. The killing data of MIAPaCa/FG2 cells are as follows: […]
`C/C(=C\CCP(=O)(N[C@@H](C)C(=O)OC(C)C)Oc1ccccc1)CO` (stereo partly drawn) [Control compound 1, Isopropyl (((E)-5-hydroxy-4-methylpent-3-en-1-yl)(phenoxy)phosphoryl)-L-alaninate, reference compound]: the EC50 was 0.57 nM.

The assay is the same for the next values; noted with them: Homo sapiens, MIA PaCa-2; γδT cells co-cultured with MIAPaCa/FG2 cells, E:T=2:1, 20 hours; compound diluted 10-fold, 10^-12-10^-5 M; chemiluminescence; read-out: MIApaca killing.
As to `CC(C)OC(=O)[C@H](C)NP(=O)(OC/C=C(/CO)C(F)(F)F)Oc1ccc(C[C@H](NC(=O)OCc2ccccc2)C(=O)OC2CCCC2)cc1` (stereo partly drawn) [Compound 6], the EC50 is 11.4 nM. Consider `CC(C)OC(=O)[C@H](Cc1ccc(OP(=O)(N[C@@H](C)C(=O)OC2CCCC2)OC/C=C(/CO)C(F)(F)F)cc1)NC(=O)OCc1ccccc1` (stereo partly drawn) [Compound 7], for which the EC50 was found to be 9.6 nM.

The assay is the same for the next values; noted with them: read-out: MIApaca killing; γδT cells co-cultured with MIAPaCa/FG2 cells, E:T=2:1, 20 hours; compound diluted 10-fold, 10^-12-10^-5 M; chemiluminescence.
Take `C/C(=C\CCP(=O)(N[C@@H](C)C(=O)OC(C)C)Oc1ccc(C[C@H](NC(=O)OCc2ccccc2)C(=O)OC2CCCC2)cc1)CO` (stereo partly drawn) [Compound 1, Cyclopentyl (2S)-2-(benzyloxycarbonylamino)-3-[4-[[(E)-5-hydroxy-4-methyl-pent-3-enyl]-[[(1S)-2-isopropoxy-1-methyl-2-oxo-ethyl]amino]phosphoryl]oxyphenyl]propionate]: the EC50 worked out at 0.1 nM. `C/C(=C\CCP(=O)(N[C@@H](C)C(=O)OC(C)C)Oc1ccc(C[C@H](NC(=O)OCc2ccccc2)C(=O)O[C@H]2CCOC2)cc1)CO` (stereo partly drawn) [Compound 2, (S)-tetrahydrofuran-3-yl (2S)-2-(benzyloxycarbonylamino)-3-[4-[[(E)-5-hydroxy-4-methyl-pent-3-enyl]-[[(1S)-2-isopropoxy-1-methyl-2-oxo-ethyl]amino]phosphoryl]oxyphenyl]propionate]: the EC50 came out at 0.12 nM. With `C/C(=C\CCP(=O)(N[C@@H](C)C(=O)OC(C)C)Oc1ccc(C[C@H](NC(=O)OCc2ccccc2)C(=O)O[C@@H]2CCOC2)cc1)CO` (stereo partly drawn) [Compound 3, (R)-tetrahydrofuran-3-yl (2S)-2-(benzyloxycarbonylamino)-3-[4-[[(E)-5-hydroxy-4-methyl-pent-3-enyl]-[[(1S)-2-isopropoxy-1-methyl-2-oxo-ethyl]amino]phosphoryl]oxyphenyl]propionate], the EC50 amounted to 0.17 nM. As for `C/C(=C\CCP(=O)(N[C@@H](C)C(=O)OC1CCCC1)Oc1ccc(C[C@H](NC(=O)OCc2ccccc2)C(=O)OC(C)C)cc1)CO` (stereo partly drawn) [Compound 4, Isopropyl (2S)-2-(benzyloxycarbonylamino)-3-[4-[[(E)-5-hydroxy-4-methyl-pent-3-enyl]-[[(1S)-2-isocyclopentyloxy-1-methyl-2-oxo-ethyl]amino]phosphoryl]oxyphenyl]propionate], the EC50 stood at 0.07 nM. Regarding `C/C(=C\CCP(=O)(N[C@@H](C)C(=O)OC(C)C)Oc1ccc(C[C@H](NC(=O)CCc2ccccc2)C(=O)OC2CCCC2)cc1)CO` (stereo partly drawn) [Compound 5, Cyclopentyl (2S)-2-(3-phenylpropionylamino)-3-[4-[[(E)-5-hydroxy-4-methyl-pent-3-enyl]-[[(1S)-2-isopropoxy-1-methyl-2-oxo-ethyl]amino]phosphoryl]oxyphenyl]propionate], the EC50 turned out to be 0.06 nM.

Still in this assay, the particulars now being: γδT cells co-cultured with MIAPaCa/FG2 cells, E:T=2:1, 20 hours; compound diluted 10-fold, 10^-12-10^-5 M; chemiluminescence; read-out: MIApaca killing.
In the case of `C/C(=C\COP(=O)(O)OP(=O)(O)O)CO` [HMBPP control, reference compound], the EC50 stood at 2.1 nM.
